Results published in publication PMC6199744, “Development of Chemical Proteomics for the Folateome and Analysis of the Kinetoplastid Folateome” (ACS Infectious Diseases, 2018).
Like-named read-outs stand apart in the source and are kept apart here.

How the values were obtained:
Type in all cases: binding
[1] = biological target: T1, HeLa cell extract proteins (Homo sapiens, UniProt P49327)
T1 construct: endogenous in cells; host or cells: HeLa cell extract

[2] = biological target: T2, HeLa cell extract proteins (Homo sapiens, UniProt P11413)
T2 construct: endogenous in cells; host or cells: HeLa cell extract
T2 sequence (P11413 whole entry): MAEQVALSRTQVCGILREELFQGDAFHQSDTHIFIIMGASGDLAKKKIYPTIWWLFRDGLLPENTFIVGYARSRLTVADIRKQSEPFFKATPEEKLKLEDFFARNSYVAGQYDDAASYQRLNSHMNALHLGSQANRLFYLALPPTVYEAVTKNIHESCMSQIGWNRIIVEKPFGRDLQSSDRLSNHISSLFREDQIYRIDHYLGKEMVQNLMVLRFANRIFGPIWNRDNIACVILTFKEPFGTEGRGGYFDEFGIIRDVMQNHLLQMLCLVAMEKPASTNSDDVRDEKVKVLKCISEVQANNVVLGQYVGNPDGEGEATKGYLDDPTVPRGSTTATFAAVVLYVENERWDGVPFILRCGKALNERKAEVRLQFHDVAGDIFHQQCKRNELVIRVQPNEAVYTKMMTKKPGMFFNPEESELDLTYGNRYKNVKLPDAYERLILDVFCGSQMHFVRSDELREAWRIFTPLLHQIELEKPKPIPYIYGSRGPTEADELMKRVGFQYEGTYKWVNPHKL

[3] = biological target: T3, HeLa cell extract proteins (Homo sapiens, UniProt P62333)
T3 construct: endogenous in cells; host or cells: HeLa cell extract
T3 sequence (P62333 whole entry): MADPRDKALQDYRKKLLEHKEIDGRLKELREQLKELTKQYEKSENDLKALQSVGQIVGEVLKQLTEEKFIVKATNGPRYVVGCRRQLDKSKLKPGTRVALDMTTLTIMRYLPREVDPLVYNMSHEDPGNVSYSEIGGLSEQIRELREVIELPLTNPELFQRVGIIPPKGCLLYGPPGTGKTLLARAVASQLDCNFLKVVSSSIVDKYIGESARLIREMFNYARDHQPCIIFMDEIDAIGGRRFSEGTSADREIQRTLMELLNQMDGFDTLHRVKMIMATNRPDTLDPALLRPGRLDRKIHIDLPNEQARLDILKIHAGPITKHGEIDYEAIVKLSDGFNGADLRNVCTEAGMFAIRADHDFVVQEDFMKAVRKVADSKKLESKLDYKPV

[4] = biological target: T4, HeLa cell extract proteins (Homo sapiens, UniProt Q9NPA3)
T4 construct: endogenous in cells; host or cells: HeLa cell extract
T4 sequence (Q9NPA3 whole entry): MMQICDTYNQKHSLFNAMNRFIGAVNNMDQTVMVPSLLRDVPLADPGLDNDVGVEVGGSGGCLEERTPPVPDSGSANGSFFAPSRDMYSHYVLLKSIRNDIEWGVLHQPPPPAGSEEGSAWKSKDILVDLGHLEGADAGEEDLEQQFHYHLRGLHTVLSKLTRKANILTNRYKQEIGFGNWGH

[5] = biological target: T5, HeLa cell extract proteins (Homo sapiens, UniProt P53999)
T5 construct: endogenous in cells; host or cells: HeLa cell extract

[6] = biological target: T6, HeLa cell extract proteins (Homo sapiens, UniProt P23381)
T6 construct: endogenous in cells; host or cells: HeLa cell extract
T6 sequence (P23381 1-471): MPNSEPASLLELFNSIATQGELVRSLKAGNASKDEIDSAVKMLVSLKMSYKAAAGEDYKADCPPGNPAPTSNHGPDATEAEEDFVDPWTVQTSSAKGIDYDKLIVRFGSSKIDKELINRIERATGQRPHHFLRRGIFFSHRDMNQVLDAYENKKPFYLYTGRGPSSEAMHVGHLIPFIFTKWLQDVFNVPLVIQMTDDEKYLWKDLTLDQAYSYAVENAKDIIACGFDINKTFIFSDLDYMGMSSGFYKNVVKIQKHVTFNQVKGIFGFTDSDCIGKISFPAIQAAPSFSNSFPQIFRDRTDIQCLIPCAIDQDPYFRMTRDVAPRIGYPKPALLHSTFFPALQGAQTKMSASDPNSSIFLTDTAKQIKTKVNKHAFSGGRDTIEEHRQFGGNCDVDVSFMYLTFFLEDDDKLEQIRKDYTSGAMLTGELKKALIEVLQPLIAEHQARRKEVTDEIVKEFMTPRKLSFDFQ

[7] = biological target: T7, HeLa cell extract proteins (Homo sapiens, UniProt O14818)
T7 construct: endogenous in cells; host or cells: HeLa cell extract
T7 sequence (O14818 1-248): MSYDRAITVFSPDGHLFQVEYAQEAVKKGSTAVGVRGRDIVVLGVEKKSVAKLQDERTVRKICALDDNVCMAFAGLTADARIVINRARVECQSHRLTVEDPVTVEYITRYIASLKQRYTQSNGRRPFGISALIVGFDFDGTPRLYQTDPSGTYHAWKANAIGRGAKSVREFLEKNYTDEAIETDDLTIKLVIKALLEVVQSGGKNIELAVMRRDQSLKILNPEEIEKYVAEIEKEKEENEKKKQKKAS

[8] = biological target: T8, HeLa cell extract proteins (Homo sapiens, UniProt P18206)
T8 construct: endogenous in cells; host or cells: HeLa cell extract
T8 sequence (P18206 1-1134): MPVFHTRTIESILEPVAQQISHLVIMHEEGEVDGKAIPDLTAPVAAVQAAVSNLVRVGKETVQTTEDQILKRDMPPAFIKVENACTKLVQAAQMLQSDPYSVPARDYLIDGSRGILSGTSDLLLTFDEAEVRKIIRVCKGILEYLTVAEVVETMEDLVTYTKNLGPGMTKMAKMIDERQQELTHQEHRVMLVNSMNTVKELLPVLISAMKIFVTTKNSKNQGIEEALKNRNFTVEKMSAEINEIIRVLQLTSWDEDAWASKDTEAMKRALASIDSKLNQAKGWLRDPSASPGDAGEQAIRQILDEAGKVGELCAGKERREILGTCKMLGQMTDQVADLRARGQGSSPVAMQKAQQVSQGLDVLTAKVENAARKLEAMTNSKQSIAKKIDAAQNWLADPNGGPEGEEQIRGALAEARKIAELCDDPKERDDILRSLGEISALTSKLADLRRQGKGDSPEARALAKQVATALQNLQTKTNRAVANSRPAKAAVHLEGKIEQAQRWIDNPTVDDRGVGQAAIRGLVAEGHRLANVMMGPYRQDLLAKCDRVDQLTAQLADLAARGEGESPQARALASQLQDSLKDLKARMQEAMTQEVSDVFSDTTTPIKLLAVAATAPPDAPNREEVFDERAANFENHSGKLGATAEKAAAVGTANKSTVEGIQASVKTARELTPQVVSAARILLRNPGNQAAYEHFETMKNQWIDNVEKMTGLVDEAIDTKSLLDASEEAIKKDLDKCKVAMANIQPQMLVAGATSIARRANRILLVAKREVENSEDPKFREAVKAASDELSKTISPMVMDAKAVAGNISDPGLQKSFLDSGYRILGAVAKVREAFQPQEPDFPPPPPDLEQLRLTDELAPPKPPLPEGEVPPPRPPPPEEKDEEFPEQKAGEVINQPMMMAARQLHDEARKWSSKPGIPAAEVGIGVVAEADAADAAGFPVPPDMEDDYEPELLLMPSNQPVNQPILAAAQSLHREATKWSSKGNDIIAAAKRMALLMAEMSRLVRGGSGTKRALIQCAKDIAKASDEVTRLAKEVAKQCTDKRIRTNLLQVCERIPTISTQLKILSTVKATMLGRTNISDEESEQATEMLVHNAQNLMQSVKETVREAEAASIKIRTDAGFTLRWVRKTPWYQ

T1 sequence (P49327 whole entry): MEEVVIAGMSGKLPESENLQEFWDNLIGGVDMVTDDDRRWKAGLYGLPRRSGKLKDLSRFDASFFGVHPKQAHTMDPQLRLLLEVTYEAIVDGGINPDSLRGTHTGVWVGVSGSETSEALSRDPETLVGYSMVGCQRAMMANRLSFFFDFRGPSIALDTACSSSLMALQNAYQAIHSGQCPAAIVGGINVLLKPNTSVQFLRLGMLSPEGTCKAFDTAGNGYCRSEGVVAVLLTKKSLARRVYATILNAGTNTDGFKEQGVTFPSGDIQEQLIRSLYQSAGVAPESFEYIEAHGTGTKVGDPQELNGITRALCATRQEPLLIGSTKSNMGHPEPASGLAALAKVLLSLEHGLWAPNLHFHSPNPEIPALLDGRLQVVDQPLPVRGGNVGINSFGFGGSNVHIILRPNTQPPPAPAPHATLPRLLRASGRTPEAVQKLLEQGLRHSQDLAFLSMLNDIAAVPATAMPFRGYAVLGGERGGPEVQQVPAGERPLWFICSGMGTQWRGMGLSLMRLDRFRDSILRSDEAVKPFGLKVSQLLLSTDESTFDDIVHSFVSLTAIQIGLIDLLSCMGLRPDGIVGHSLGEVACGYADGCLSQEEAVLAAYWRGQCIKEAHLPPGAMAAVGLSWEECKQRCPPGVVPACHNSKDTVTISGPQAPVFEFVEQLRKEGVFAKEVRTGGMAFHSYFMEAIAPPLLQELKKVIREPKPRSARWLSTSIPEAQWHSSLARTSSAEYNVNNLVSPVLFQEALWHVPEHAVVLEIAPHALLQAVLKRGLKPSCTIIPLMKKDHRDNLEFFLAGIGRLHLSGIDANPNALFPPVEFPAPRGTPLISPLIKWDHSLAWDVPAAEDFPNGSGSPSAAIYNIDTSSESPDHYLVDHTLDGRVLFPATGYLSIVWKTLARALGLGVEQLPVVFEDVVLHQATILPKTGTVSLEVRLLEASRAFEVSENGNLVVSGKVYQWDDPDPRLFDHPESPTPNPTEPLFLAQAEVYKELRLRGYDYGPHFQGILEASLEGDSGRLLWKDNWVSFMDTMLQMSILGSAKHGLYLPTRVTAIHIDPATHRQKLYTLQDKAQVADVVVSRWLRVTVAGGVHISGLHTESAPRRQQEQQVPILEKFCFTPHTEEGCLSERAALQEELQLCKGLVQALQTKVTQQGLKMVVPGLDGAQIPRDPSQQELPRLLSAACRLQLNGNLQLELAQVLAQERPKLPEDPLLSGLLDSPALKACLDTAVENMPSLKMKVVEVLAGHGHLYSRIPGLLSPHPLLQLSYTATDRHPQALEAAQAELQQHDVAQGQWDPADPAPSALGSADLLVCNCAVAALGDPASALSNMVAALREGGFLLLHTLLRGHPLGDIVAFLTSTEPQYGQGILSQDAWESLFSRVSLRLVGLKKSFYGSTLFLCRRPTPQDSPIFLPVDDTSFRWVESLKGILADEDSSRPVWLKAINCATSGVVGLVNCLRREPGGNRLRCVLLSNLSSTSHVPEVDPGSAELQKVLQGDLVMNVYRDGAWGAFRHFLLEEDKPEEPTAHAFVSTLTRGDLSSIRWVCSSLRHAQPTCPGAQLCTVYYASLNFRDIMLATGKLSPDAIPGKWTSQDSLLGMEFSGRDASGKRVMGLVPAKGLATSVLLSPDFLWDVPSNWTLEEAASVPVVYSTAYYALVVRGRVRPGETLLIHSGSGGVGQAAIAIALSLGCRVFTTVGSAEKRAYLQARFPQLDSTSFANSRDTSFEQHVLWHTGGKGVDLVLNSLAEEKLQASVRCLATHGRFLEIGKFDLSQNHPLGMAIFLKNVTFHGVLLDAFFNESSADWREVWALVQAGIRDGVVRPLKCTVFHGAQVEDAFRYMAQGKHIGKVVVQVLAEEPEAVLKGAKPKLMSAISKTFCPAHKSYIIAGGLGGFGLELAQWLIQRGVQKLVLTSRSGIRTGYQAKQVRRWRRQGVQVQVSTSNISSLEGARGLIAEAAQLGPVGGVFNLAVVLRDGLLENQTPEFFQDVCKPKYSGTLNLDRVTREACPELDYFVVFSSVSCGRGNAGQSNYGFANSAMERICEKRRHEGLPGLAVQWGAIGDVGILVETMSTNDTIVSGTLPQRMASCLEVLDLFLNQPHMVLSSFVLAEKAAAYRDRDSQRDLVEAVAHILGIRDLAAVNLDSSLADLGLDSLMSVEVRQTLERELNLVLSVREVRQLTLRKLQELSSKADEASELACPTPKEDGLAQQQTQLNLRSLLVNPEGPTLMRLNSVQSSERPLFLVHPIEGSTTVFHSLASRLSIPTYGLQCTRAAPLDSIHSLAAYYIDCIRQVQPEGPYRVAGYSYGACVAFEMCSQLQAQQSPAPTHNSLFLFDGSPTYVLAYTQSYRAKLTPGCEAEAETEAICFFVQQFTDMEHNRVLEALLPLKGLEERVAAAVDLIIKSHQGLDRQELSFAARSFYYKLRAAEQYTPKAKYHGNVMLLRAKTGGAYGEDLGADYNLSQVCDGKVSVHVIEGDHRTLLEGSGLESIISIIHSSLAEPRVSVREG

Structure (SMILES) | fold changes relative to vehicle control ([1]; HeLa, captured protein FASN) | fold changes relative to vehicle control ([2]; HeLa, protein G6PD) | fold changes relative to vehicle control ([3]; protein PSMC6, HeLa) | fold changes relative to vehicle control ([4]; HeLa, protein MIG12) | fold changes relative to vehicle control ([5]; HeLa, protein SUB1) | fold changes relative to vehicle control ([6]; protein WARS, HeLa) | fold changes relative to vehicle control ([7]; HeLa, captured protein PSMA7) | fold changes relative to vehicle control ([8]; protein VCL, HeLa) | fold changes relative to vehicle control ([1]; protein FASN, HeLa) | fold changes relative to vehicle control ([2]; protein G6PD, HeLa) | fold changes relative to vehicle control ([4]; captured protein MIG12, HeLa) | fold changes relative to vehicle control ([5]; protein SUB1, HeLa) | fold changes relative to vehicle control ([7]; protein PSMA7, HeLa) | also measured
Nc1nc2c(c(=O)[nH]1)N(C=O)C(CNc1ccc(C(=O)N[C@@H](CCC(=O)O)C(=O)O)cc1)CN2 (some centres unmarked) [LEU, leucovorin] | 1.13 | 1.12 | 0.84 | 0.91 | 0.7 | 0.95 | 1.08 | 0.98 |  |  |  |  |  | 
Nc1nc2[nH]cc(CCc3ccc(C(=O)N[C@@H](CCC(=O)O)C(=O)O)cc3)c2c(=O)[nH]1 [PTX, pemetrexed] |  |  |  |  |  |  |  |  |  |  |  |  |  | fold changes relative to vehicle control [1]: 1.09; fold changes relative to vehicle control [2]: 1.21; fold changes relative to vehicle control [3]: 0.92; fold changes relative to vehicle control [4]: 0.96; fold changes relative to vehicle control [5]: 1.08; fold changes relative to vehicle control [6]: 1.02; fold changes relative to vehicle control [7]: 1.03; fold changes relative to vehicle control [8]: 1.06
CCCCCCOc1ccc(Cc2cnc(N)nc2N)cc1 [compound 1] |  |  | 1.1 |  |  | 0.96 |  | 1.12 | 1.07 | 1.15 | 0.84 | 0.91 | 1.13 | 
CCCCCCOc1cccc(Cc2cnc(N)nc2N)c1 [compound 2] |  |  | 1.57 |  |  | 1.71 |  | 1.8 | 1.25 | 1.89 | 1 | 0.99 | 1.3 | 
Nc1nc2cccc(-c3ccccc3)c2n1Cc1ccc(Cl)c(Cl)c1 [compound 3] |  |  | 1.2 |  |  | 0.9 |  | 0.99 | 1.17 | 1.03 | 0.95 | 1.13 | 1.07 | 
NCCOCCOCC(=O)Nc1nc2ncc(CNc3ccc(C(=O)NC(CCC(=O)O)C(=O)O)cc3)nc2c(=O)[nH]1 (centres unmarked) [compound 6] | 1.2 | 1.32 | 1.07 | 1.1 | 1.03 | 1.19 | 1.02 | 1.21 |  |  |  |  |  | 
NCCCNc1ccc(C(=O)NC(CCC(=O)O)C(=O)O)cc1 (centres unmarked) [compound 7] | 1.2 | 1.09 | 0.96 | 1.11 | 0.87 | 0.98 | 0.93 | 0.96 |  |  |  |  |  | 
